Test results from PubChem BioAssay AID2060596 (Global Health Medicines R&D, GSK, 2025).
The source made the active and inactive calls.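 How the source made its calls: active means IC50 at or below about 50119 nM, measured in restricted growth medium; inactive means the rest.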

system: HepG2 viability, ATP luminescence, 48 h; assay: viability loss in human liver HepG2 cells – cytotoxicity control, dose response (AID 2060596)

Compound | IC50
COc1ccc(-c2ccc(CNC(=O)c3cc(C(=O)NC(C)C)ccc3Cl)cc2)cn1 | > 100 µM (inactive)
N#Cc1cccc(NC(=O)CNc2ccccc2C(=O)NC2CC2)c1 | > 100 µM (inactive)
O=C(CCCc1ncc(-c2ccccc2)o1)N1CCOC2CCCC21 (stereo not drawn) | > 100 µM (inactive)
Cn1cccc1C1CCCN1CC(=O)Nc1ccc(S(=O)(=O)N2CCOCC2)cc1 (stereo not drawn) | > 100 µM (inactive)
O=C1CCCN1c1ccc(S(=O)(=O)N2CCN(S(=O)(=O)c3ccccc3)CC2)cc1 | > 100 µM (inactive)
O=C(COc1ccc(Br)cc1F)N1CCN(c2cnccn2)CC1 | > 100 µM (inactive)
CC(C)Oc1ccc(-c2nnc(Oc3cccc4c3CCN(CCC(N)=O)CC4)s2)cc1C#N | 20 µM
CCCOc1cncc(S(=O)(=O)c2ccc3c(c2)CCN(C2CCC2)CC3)c1 | 50.1 µM
COc1ccc2oc(C(=O)NC3CCC(Oc4ncccn4)CC3)cc2c1 (stereo not drawn) | > 100 µM (inactive)
Cc1cc(-c2cnc(N3CCn4c(nnc4C4CC4)C3)nc2-c2ccncc2)on1 | > 100 µM (inactive)
O=C(CCN=C1NS(=O)(=O)c2ccccc21)Nc1ccc(S(=O)(=O)N2CCCC2)cc1 | > 100 µM (inactive)
COc1ccc(C(=O)N2CCN(c3ccc(-n4cccn4)nn3)CC2)cc1OC | > 100 µM (inactive)
O=C(CCn1nnc2cc(S(=O)(=O)N3CCCC3)ccc21)N1CCN(c2ccccn2)CC1 | > 100 µM (inactive)
CCN(C(=O)C=Cc1ccc(S(=O)(=O)N2CCc3ccccc32)cc1)C1CCS(=O)(=O)C1 (stereo not drawn) | > 100 µM (inactive)
O=C(Nc1nnc(-c2ccccc2)s1)N1CCCN(c2ncccn2)CC1 | > 100 µM (inactive)
Cc1cc(Cl)ccc1OCC(=O)N1CCc2c(cnc(C)c2CNC(=O)c2ccc(=O)[nH]n2)C1 | > 100 µM (inactive)
O=C(Nc1ccc(N2CCCC2)nc1)N1CCN(c2cnccn2)CC1 | > 100 µM (inactive)

Compound | IC50
COc1ccc(N2CCN(C(=O)c3csc(Nc4ccccc4S(C)(=O)=O)n3)CC2)nc1 | > 100 µM (inactive)
CCN(CC)c1ccc(C(=O)COc2ccc3c(c2)CCNCC3)cc1 | 31.6 µM
Cc1cccc(-c2nn(Cc3ccc(C(=O)NCCCO)cc3)c(=O)cc2N2CCCC(CO)C2)c1 (stereo not drawn) | > 100 µM (inactive)
Cc1nn(C2CCS(=O)(=O)C2)c(C)c1CN(C)C(=O)CN1C(=O)NC2(CCCCC2C)C1=O (stereo not drawn) | 79.4 µM
CN(C(=O)C[C@@H]1CCN(C(=O)C2CC2)C1)c1ccc(-c2ccc(C#N)cc2)cc1 | > 100 µM (inactive)
COc1ccc(NC(=O)c2ccc3c(=O)n(Cc4ccccn4)cnc3c2)cc1N1CCN(C)CC1 | > 100 µM (inactive)
O=C(Nc1cccnc1)C1CCN(c2ccc(-c3ccco3)nn2)CC1 | > 100 µM (inactive)
Cc1ccc2nc(CCNC(=O)CCS(=O)(=O)c3ccc4c(c3)CC(=O)N4C)[nH]c2c1 | > 100 µM (inactive)
O=C(CCCc1c[nH]c2ccccc12)N1CCN(c2ccc(N3CCOCC3)nn2)CC1 | > 100 µM (inactive)
O=C(/C=C/c1n[nH]c2ccccc12)Nc1ccc(C(=O)NCCN2CCOCC2)cc1 | > 100 µM (inactive)
O=C(NCCCN1CCc2ccccc21)c1ccc2c(=O)n(Cc3ccccn3)cnc2c1 | > 100 µM (inactive)
O=C(/C=C/c1n[nH]c2ccccc12)N1CCN(c2cnccn2)CC1 | > 100 µM (inactive)
N#Cc1c(N)n[nH]c1CCCNC(=O)c1ccc(Cl)c(S(=O)(=O)N2CCCC2)c1 | > 100 µM (inactive)
O=C1CSc2ccc(C(=O)Nc3ccc(-c4nnc5n4CCCCC5)cc3)cc2N1 | > 100 µM (inactive)
O=C(c1cc2ccccc2[nH]1)N1CCC2(CC(Nc3ccncn3)C2)C1 (stereo not drawn) | 63.1 µM
NC(=O)CC1CCN(C(=O)c2sc3sccc3c2Cl)CC1 | > 100 µM (inactive)
